Laboratory results: US12139555B2, “Peptides and compositions for inhibiting hair growth” (RODAN & FIELDS, LLC, priority 2019, dated 2024)
Ends that are not written are not given here. Peptide text beside a SMILES is read from it.

Key:
Type in all cases: cell-based, human
[1] = test system: μHF; test: Cytotoxicity testing on μHF, viability by ATP (CellTiter Glo); conditions: for Mean ATP content in μHF after 24 H treatment: N = 5 μHF, CN 1306.1; for ATP content relative to threshold (50% of negative control): 1-10-100 ng/ml, 24 h
Description: Cytotoxicity testing has been performed on μHF at day 3 in order to select the testing concentration of peptides for the following screening assays.
Treatments: Negative control: 1 (not treated), Positive control: FGF18 100 ng/ml, Treatments: 39 (13 peptides, 3 concentrations each: 1-10-100 ng/ml), Biological replicates: 5 μHF for each treatment, Time-point: 1 (after 24 H of treatment), Read-out parameters: Viability by ATP
The test items have been tested at 3 concentrations/each for their cytotoxicity potential after 24 h exposure on μHF. FGF18 100 ng/ml have been used as positive control. The toxicity has been evaluated by ATP release on n=5 μHF.
The μHF microtissue were reconstructed using the hanging drop method into GRAVITY^PLUS plates from InSphero (Switzerland) using fibroblasts and keratinocytes from human origin. The MTs were Transferred in GRAVITYTRAP for treatments and manipulation. Culture conditions: incubator at 37° C., 5% CO2, saturated humidity with adequate culture medium. The Fibroblast batch and keratinocytes has been tested for the absence of HIV, Hepatitis B, Hepatitis C, Mycoplasma. The maintenance medium has been tested for sterility.
The kit CellTiter Glo® (Promega) Luminescent cell Viability Assay is used for Adenosine-5- triphosphate (ATP) quantification. The assay procedures involves adding the single reagent directly to MTs cultured in medium. The cell lysis and the generation of a luminescent signal is proportional to the amount of ATP present. ATP measurements have been performed on 5 biological replicates and mean and standard deviation have been calculated. The threshold of 50% viability in comparison to negative control have been used as cut off; the max concentration possible over threshold has been used for the efficacy screening test.
For the selection of test concentrations of each peptide, the 50% ATP content in comparison with negative (not treated) control has been selected as threshold. The higher concentration over the selected threshold has been used for efficacy screening test for peptides form P1 to P9.

[2] = test system: CCND1; test: Regressive μHF efficacy screening: CCND1 gene expression by RTqPCR
Text: (§1) To assess the biological activity of the identified set of 13 peptides and their capability to maintain quiescence state, the Vitroscreen μHF standard model has been adapted pushing it in a regressive state (catagen-like) by the application of TGFβ1 to reduce the expression of genes linked to active growth phase (anagen) and to make the model more responsive to FGF18 as quiescence signal.
(§2) In particular, in this regressive model, the application of TGFβ1 to 72H induces a catagen-like status with the down-regulation of FGF7 anagen gene and CCND1 as proliferation marker. […]
(§3) After the selection of test concentrations of the peptides, efficacy was performed on regressing μHF (TGFβ1 treated) at day 5 in order to evaluate the further efficacy of peptides to decrease the gene expression of proliferation (CCND1) and anagen marker (FGF7). The potential down-regulation of epithelial growth regulator WNT5B has been evaluated as an optional parameter.
(§4) Treatments: Negative control: 1 (not treated), Regression inducer: TGFβ1 10 ng/ml, Positive control: FGF18 10-100 ng/ml, Treatments: 13 peptides (1 concentration each), Biological replicates: 1 biological replicates from pool of 20 μHF, Time-point: after 72H of TGFβ1 induction followed by 24H of peptide or FGF18 application, Read-out parameters: 1 Proliferation gene (CCND1) by RTqPCR, 2 anagen regulators (FGF7, WNT5B) by RTqPCR […]

[3] = test system: FGF7; test: Regressive μHF efficacy screening: FGF7 gene expression by RTqPCR
Text: as §1, §2, §3, §4

[4] = test system: WNT5B; test: Regressive μHF efficacy screening: WNT5B gene expression by RTqPCR; conditions: FGF18 100 ng/ml, after TGFβ1 10 ng/ml 72H
Text: as §1, §2, §3, §4

[5] = test system: regressive μHF; test: Overall efficacy in mimicking FGF18 in regressive μHF (CCND1, FGF7, WNT5B together); conditions: FGF18 10-100 ng/ml, after TGFβ1
Text: as §1, §2
The μHF model has been used for a screening study with the aim to characterize the 13 peptides designed on the basis of FGF18 structure in order to mimic its biological function in retarding hair growth. The following test items have been evaluated after the selection of test concentration in a preliminary tox assay.
as §3, with “parameter. […]” for “parameter.”

[6] = FGF18 100 ng/ml, after TGFβ1 10 ng/ml 72H

Row | Molecule | Mean ATP content in μHF after 24 H treatment ([1]; 1 ng/ml) [nM] | Mean ATP content in μHF after 24 H treatment ([1]; 10 ng/ml) [nM] | Mean ATP content in μHF after 24 H treatment ([1]; 100 ng/ml) [nM] | further results
1 | N=C(N)NCCC[C@H](NC(=O)[C@@H](N)CC(=O)O)C(=O)N[C@@H](CC(=O)O)C(=O)N[C@@H](CCC(=O)O)C(=O)O [Peptide P8, DRDE] (H-DRDE-OH; N-terminus and C-terminus assumed) | 1148.5 | 1155.5 | 1229.3 | –
2 | CC(C)[C@H](NC(=O)[C@H](CCCNC(=N)N)NC(=O)[C@@H](N)CC(=O)O)C(=O)O [Peptide P13, DRV] (H-Asp-Arg-Val-OH) | 576.0 | 516.6 | 404.1 | ATP content relative to threshold (50% of negative control) [1]: under-threshold
3 | NCCCC[C@H](NC(=O)[C@@H](N)CC(=O)O)C(=O)N[C@@H](CO)C(=O)N[C@@H](CCC(=O)O)C(=O)O [Peptide P9, DKSE] (H-DKSE-OH; N-terminus and C-terminus assumed) | 1521.4 | 1273.6 | 1469.4 | –
4 | CC[C@H](C)[C@H](N)C(=O)N[C@@H](CCC(=O)O)C(=O)N[C@@H](CCCCN)C(=O)N[C@H](C(=O)O)C(C)C [Peptide P12, IEKV] (H-IEKV-OH; N-terminus and C-terminus assumed) | 435.7 | 562.8 | 370.0 | ATP content relative to threshold (50% of negative control) [1]: under-threshold
5 | CC(C)C[C@H](NC(=O)[C@H](CCC(N)=O)NC(=O)[C@@H](N)CCCCN)C(=O)N[C@@H](CCCNC(=N)N)C(=O)O [Peptide P1, KQLR] (H-KQLR-OH; N-terminus and C-terminus assumed) | 1876.5 | 2007.2 | 1903.1 | –
6 | Fibroblast Growth Factor 18 [FGF18] | – | – | 1560.3 | Effect on CCND1 expression after TGFβ1 [2, 6]: further down-regulation; Effect on FGF7 expression after TGFβ1 [3, 6]: further down-regulation; Effect on WNT5b expression after TGFβ1 [4]: decrease; Effect in enhancing the down regulation of anagen markers [5]: dose-dependent effect
7 | CC(C)C[C@H](NC(=O)[C@H](CCCNC(=N)N)NC(=O)[C@@H](N)CC(=O)O)C(=O)N[C@@H](CCCCN)C(=O)O [Peptide P3, DRLK] (H-DRLK-OH; N-terminus and C-terminus assumed) | 1026.2 | 924.8 | 1631.2 | –
8 | NCCCC[C@H](NC(=O)[C@@H](N)CCC(=O)O)C(=O)N[C@@H](CC(N)=O)C(=O)N[C@@H](CC(=O)O)C(=O)O [Peptide P7, EKND] (H-EKND-OH; N-terminus and C-terminus assumed) | 1275.4 | 1243.9 | 1258.8 | –
9 | Transforming Growth Factor Beta 1 [TGFβ1] | – | – | – | Effect on expression of CCND1 versus CN ([2]; TGFβ1 10 ng/ml, 72H): reduced; Effect on expression of FGF7 versus CN ([3]; TGFβ1 10 ng/ml, 72H): reduced
10 | C[C@@H](O)[C@H](NC(=O)[C@H](CCCCN)NC(=O)[C@@H](N)CCC(=O)O)C(=O)N[C@@H](CC(=O)O)C(=O)O [Peptide P4, EKTD] (H-EKTD-OH; N-terminus and C-terminus assumed) | 1567.7 | 1715.2 | 1597.4 | –
11 | RTGQYK [Peptide P2, RTGQYK] | 1522.4 | 1838.6 | 1687.8 | –
12 | C[C@@H](O)[C@H](NC(=O)[C@H](CCCNC(=N)N)NC(=O)[C@@H](N)CCCCN)C(=O)NCC(=O)O [Peptide P6, KRTG] (H-KRTG-OH; N-terminus and C-terminus assumed) | 1122.0 | 1116.0 | 1313.3 | –
13 | CC(C)[C@H](NC(=O)[C@H](CCCNC(=N)N)NC(=O)[C@@H](N)CC(=O)O)C(=O)N[C@@H](CCC(=O)O)C(=O)O [Peptide P10, DRVE] (H-DRVE-OH; N-terminus and C-terminus assumed) | 1727.8 | 1706.1 | 1329.1 | ATP content relative to threshold (50% of negative control) [1]: over the threshold
14 | C[C@@H](O)[C@H](NC(=O)[C@H](CCCNC(=N)N)NC(=O)[C@@H](N)CC(=O)O)C(=O)N[C@@H](CC(=O)O)C(=O)O [Peptide P11, DRTD] (H-DRTD-OH; N-terminus and C-terminus assumed) | 463.1 | 447.0 | 149.0 | ATP content relative to threshold (50% of negative control) [1]: under-threshold
15 | NCCCC[C@H](NC(=O)[C@@H](N)CCC(=O)O)C(=O)N[C@@H](CC(=O)O)C(=O)N[C@@H](CC(=O)O)C(=O)O [Peptide P5, EKDD] (H-EKDD-OH; N-terminus and C-terminus assumed) | 1263.3 | 1108.9 | 1255.5 | –
